One assay concerns Haemonchus contortus L3. As to the kind of experiment: microbe, parasite or virus in culture. Format: cell-based. The conditions noted are these: Haemonchus contortus, 96 h, read-out: HcL3 Minimal Effective Concentration (MEC).
A further assay has as its system D. immitis microfilariae. As to the kind of experiment: Dirofilaria immitis, microfilariae (DiMF) in vitro motility assay. Conditions: Dirofilaria immitis, 72 h, read-out: DiMF minimally effective dose (MEC). Format: cell-based.

With `N#Cc1cc2c3c(n(C(=O)NCc4ccnc(Cl)c4)c2cc1F)CCN(C/C=C/c1ccc(Cl)cc1)C3` [Example 178, (E)-2-(3-(4-chlorophenyl)allyl)-N-((2-chloropyridin-4-yl)methyl)-8-cyano-7-fluoro-1,2,3,4-tetrahydro-5H-pyrido[4,3-b]indole-5-carboxamide], the minimal effective concentration with Haemonchus contortus L3 is 0.3 µM; with D. immitis microfilariae, more than 100 µM.
As to `O=C(NCc1ccnc(Cl)c1)n1c2c(c3cc(Br)ccc31)CN(C/C=C/c1ccc(Cl)c(F)c1)CC2` [Example 179, (E)-8-bromo-2-(3-(4-chloro-3-fluorophenyl)allyl)-N-((2-chloropyridin-4-yl)methyl)-1,2,3,4-tetrahydro-5H-pyrido[4,3-b]indole-5-carboxamide], the minimal effective concentration in the assay with Haemonchus contortus L3 was 0.5 µM; in the assay with D. immitis microfilariae, 75.8 µM.
Consider `N#Cc1ccc(/C=C/CN2CCc3c(c4cc(Br)ccc4n3C(=O)NCc3ccnc(Cl)c3)C2)cc1F` [Example 180, (E)-8-bromo-N-((2-chloropyridin-4-yl)methyl)-2-(3-(4-cyano-3-fluorophenyl)allyl)-1,2,3,4-tetrahydro-5H-pyrido[4,3-b]indole-5-carboxamide], for which the minimal effective concentration was 0.5 µM in the assay on Haemonchus contortus L3 and more than 100 µM in the assay with D. immitis microfilariae.
In the case of `O=C(NCc1ccnc(Cl)c1)n1c2c(c3cc(Br)ccc31)CN(C/C=C/c1ccc(F)cc1F)CC2` [Example 181, (E)-8-bromo-N-((2-chloropyridin-4-yl)methyl)-2-(3-(2,4-difluorophenyl)allyl)-1,2,3,4-tetrahydro-5H-pyrido[4,3-b]indole-5-carboxamide], the figures for the minimal effective concentration with Haemonchus contortus L3 and with D. immitis microfilariae were 0.2 µM and 32.3 µM, respectively.
The matching figures for `O=C(NCc1ccnc(Cl)c1)n1c2c(c3cc(Br)ccc31)CN(C/C=C/c1ccc(F)c(Cl)c1)CC2` [Example 182, (E)-8-bromo-2-(3-(3-chloro-4-fluorophenyl)allyl)-N-((2-chloropyridin-4-yl)methyl)-1,2,3,4-tetrahydro-5H-pyrido[4,3-b]indole-5-carboxamide]: 1 µM and more than 100 µM.
Turning to `O=C(NCc1ccnc(Cl)c1)n1c2c(c3cc(Br)ccc31)CN(C/C=C/c1ccc(F)c(F)c1)CC2` [Example 183, (E)-8-bromo-N-((2-chloropyridin-4-yl)methyl)-2-(3-(3,4-difluorophenyl)allyl)-1,2,3,4-tetrahydro-5H-pyrido[4,3-b]indole-5-carboxamide], the figures for the minimal effective concentration with Haemonchus contortus L3 and in the assay with D. immitis microfilariae were 0.5 µM and 18.2 µM, respectively.
For the compound `O=C(NCc1ccnc(Cl)c1)n1c2c(c3cc(Br)ccc31)CN(C/C=C/c1ccc(Cl)c(Cl)c1)CC2` [Example 186, (E)-8-bromo-N-((2-chloropyridin-4-yl)methyl)-2-(3-(3,4-dichlorophenyl)allyl)-1,2,3,4-tetrahydro-5H-pyrido[4,3-b]indole-5-carboxamide], the minimal effective concentration is 1 µM with Haemonchus contortus L3 and more than 100 µM in the assay on D. immitis microfilariae.
On to `O=C(NCc1ccnc(Cl)c1)n1c2c(c3cc(Br)ccc31)CN(C/C=C/c1ccc(OC(F)(F)F)cc1)CC2` [Example 187, (E)-8-bromo-N-((2-chloropyridin-4-yl)methyl)-2-(3-(4-(trifluoromethoxy)phenyl)allyl)-1,2,3,4-tetrahydro-5H-pyrido[4,3-b]indole-5-carboxamide], for which the minimal effective concentration was 1.3 µM in the assay with Haemonchus contortus L3 and more than 100 µM in the assay with D. immitis microfilariae.
As to `O=C(NCc1ccnc(F)c1)n1c2c(c3cc(Br)ccc31)CN(C/C=C/c1ccc(Cl)c(F)c1)CC2` [Example 188, (E)-8-bromo-2-(3-(4-chloro-3-fluorophenyl)allyl)-N-((2-fluoropyridin-4-yl)methyl)-1,2,3,4-tetrahydro-5H-pyrido[4,3-b]indole-5-carboxamide], the minimal effective concentration in the assay with Haemonchus contortus L3 came to 0.3 µM; in the assay on D. immitis microfilariae, 3.3 µM.
As for `N#Cc1ccc(/C=C/CN2CCc3c(c4cc(Br)ccc4n3C(=O)NCc3ccnc(F)c3)C2)cc1F` [Example 189, (E)-8-bromo-2-(3-(4-cyano-3-fluorophenyl)allyl)-N-((2-fluoropyridin-4-yl)methyl)-1,2,3,4-tetrahydro-5H-pyrido[4,3-b]indole-5-carboxamide], the minimal effective concentration with Haemonchus contortus L3 worked out at 0.3 µM; with D. immitis microfilariae, 10.4 µM.
Consider `O=C(NCc1ccnc(F)c1)n1c2c(c3cc(Br)ccc31)CN(C/C=C/c1ccc(F)c(Cl)c1)CC2` [Example 190, (E)-8-bromo-2-(3-(3-chloro-4-fluorophenyl)allyl)-N-((2-fluoropyridin-4-yl)methyl)-1,2,3,4-tetrahydro-5H-pyrido[4,3-b]indole-5-carboxamide], for which the minimal effective concentration is 1 µM in the assay with Haemonchus contortus L3 and 5.7 µM in the assay on D. immitis microfilariae.
Take `O=C(NCc1ccnc(F)c1)n1c2c(c3cc(Br)ccc31)CN(C/C=C/c1ccc(F)c(F)c1)CC2` [Example 191, (E)-8-bromo-2-(3-(3,4-difluorophenyl)allyl)-N-((2-fluoropyridin-4-yl)methyl)-1,2,3,4-tetrahydro-5H-pyrido[4,3-b]indole-5-carboxamide]: the minimal effective concentration in the assay with Haemonchus contortus L3 was 0.3 µM; with D. immitis microfilariae, 10 µM.
Turning to `O=C(NCc1ccnc(F)c1)n1c2c(c3cc(Br)ccc31)CN(C/C=C/c1ccc(Cl)cc1)CC2` [Example 192, (E)-8-bromo-2-(3-(4-chlorophenyl)allyl)-N-((2-fluoropyridin-4-yl)methyl)-1,2,3,4-tetrahydro-5H-pyrido[4,3-b]indole-5-carboxamide], the minimal effective concentration in the assay with Haemonchus contortus L3 was 0.7 µM; with D. immitis microfilariae, 11.5 µM.
Regarding `O=C(NCc1cnc(Cl)s1)n1c2c(c3cc(Br)ccc31)CN(C/C=C/c1ccc(Cl)cc1)CC2` [Example 193, (E)-8-bromo-2-(3-(4-chlorophenyl)allyl)-N-((2-chlorothiazol-5-yl)methyl)-1,2,3,4-tetrahydro-5H-pyrido[4,3-b]indole-5-carboxamide], the minimal effective concentration in the assay with Haemonchus contortus L3 is 1 µM; in the assay on D. immitis microfilariae it was 75.8 µM.
As to `Cc1cc2c(cc1Br)c1c(n2C(=O)NCc2ccnc(Cl)c2)CCN(C/C=C/c2ccc(Cl)cc2)C1` [Example 194, (E)-8-bromo-2-(3-(4-chlorophenyl)allyl)-N-((2-chloropyridin-4-yl)methyl)-7-methyl-1,2,3,4-tetrahydro-5H-pyrido[4,3-b]indole-5-carboxamide], the minimal effective concentration was 0.4 µM in the assay on Haemonchus contortus L3 and 5.7 µM in the assay on D. immitis microfilariae.
The matching figures for `COc1cc2c(cc1Br)c1c(n2C(=O)NCc2ccnc(Cl)c2)CCN(C/C=C/c2ccc(Cl)cc2)C1` [Example 195, (E)-8-bromo-2-(3-(4-chlorophenyl)allyl)-N-((2-chloropyridin-4-yl)methyl)-7-methoxy-1,2,3,4-tetrahydro-5H-pyrido[4,3-b]indole-5-carboxamide]: 0.5 µM and 5.7 µM.
For the compound `O=C(NCc1ccnc(Cl)c1)n1c2c(c3cc(Br)c(Cl)cc31)CN(C/C=C/c1ccc(Cl)cc1)CC2` [Example 196, (E)-8-bromo-7-chloro-2-(3-(4-chlorophenyl)allyl)-N-((2-chloropyridin-4-yl)methyl)-1,2,3,4-tetrahydro-5H-pyrido[4,3-b]indole-5-carboxamide], the minimal effective concentration was found to be 0.3 µM with Haemonchus contortus L3 and 5.7 µM in the assay with D. immitis microfilariae.
On to `O=C(NCc1ccnc(Cl)c1)n1c2c(c3cc(Br)c(F)cc31)CN(C/C=C/c1ccc(Cl)cc1)CC2` [Example 197, (E)-8-bromo-2-(3-(4-chlorophenyl)allyl)-N-((2-chloropyridin-4-yl)methyl)-7-fluoro-1,2,3,4-tetrahydro-5H-pyrido[4,3-b]indole-5-carboxamide], for which the minimal effective concentration in the assay on Haemonchus contortus L3 came to 0.4 µM; with D. immitis microfilariae it was 4.4 µM.
The matching figures for `O=C(NCc1ccnc(Cl)c1)n1c2c(c3cc(Br)c(Br)cc31)CN(C/C=C/c1ccc(Cl)cc1)CC2` [Example 198, (E)-7,8-dibromo-2-(3-(4-chlorophenyl)allyl)-N-((2-chloropyridin-4-yl)methyl)-1,2,3,4-tetrahydro-5H-pyrido[4,3-b]indole-5-carboxamide]: 1 µM and 5.7 µM.
Take `O=C(NCc1ccnc(Cl)c1)n1c2c(c3ccc(Br)cc31)CN(C/C=C/c1ccc(F)cc1F)CC2` [Example 199, (E)-7-bromo-N-((2-chloropyridin-4-yl)methyl)-2-(3-(2,4-difluorophenyl)allyl)-1,2,3,4-tetrahydro-5H-pyrido[4,3-b]indole-5-carboxamide]: the minimal effective concentration amounted to 5.7 µM in the assay on Haemonchus contortus L3 and 24.5 µM with D. immitis microfilariae.
In the same order, the values of `O=C(NCc1ccnc(Cl)c1)n1c2c(c3ccc(Cl)cc31)CN(C/C=C/c1ccc(Cl)c(F)c1)CC2` [Example 205, (E)-7-chloro-2-(3-(4-chloro-3-fluorophenyl)allyl)-N-((2-chloropyridin-4-yl)methyl)-1,2,3,4-tetrahydro-5H-pyrido[4,3-b]indole-5-carboxamide] are 1 µM and 18.2 µM.
Take `O=C(NCc1ccnc(Cl)c1)n1c2c(c3ccc(Cl)cc31)CN(C/C=C/c1ccc(C(F)(F)F)cn1)CC2` [Example 206, (E)-7-chloro-N-((2-chloropyridin-4-yl)methyl)-2-(3-(5-(trifluoromethyl)-pyridin-2-yl)allyl)-1,2,3,4-tetrahydro-5H-pyrido[4,3-b]indole-5-carboxamide]: the figures for the minimal effective concentration in the assay with Haemonchus contortus L3 and with D. immitis microfilariae were 0.2 µM and 3.3 µM, respectively.
With `O=C(NCc1ccnc(Cl)c1)n1c2c(c3c(Cl)cccc31)CN(C/C=C/c1ccc(C(F)(F)F)cn1)CC2` [Example 207, (E)-9-chloro-N-((2-chloropyridin-4-yl)methyl)-2-(3-(5-(trifluoromethyl)-pyridin-2-yl)allyl)-1,2,3,4-tetrahydro-5H-pyrido[4,3-b]indole-5-carboxamide], the minimal effective concentration in the assay with Haemonchus contortus L3 was determined as 0.3 µM; in the assay with D. immitis microfilariae, 10 µM.
